Results as given in ChEMBL document CHEMBL1158611, “Trichoderins, novel aminolipopeptides from a marine sponge-derived Trichoderma sp., are active against dormant mycobacteria” (2010).
In brackets after ≈: the same amount, converted by molar mass. *1 amine or outer side, *2 acyl side, *3 side chain or, on linkers, in order; H or OH if unused. Where a SMILES comes first, the peptide text is derived from it. [ ]: non-standard residue; d: D form. The star is where a group is joined. X2 = CCC(=O)C[C@@H](O)C[C@@H](C)C[C@H](N[*:1])C(=O)[*:2]; X1 = CCC(=O)/C=C/C[C@@H](C)C[C@H](N[*:1])C(=O)[*:2]; Alaψ(CH2NMeCH2CH2OH) = C[C@@H](CN(C)CCO)N*; Decanoyl(2R-Me) = CCCCCCCC[C@@H](C)C(=O)*; Aib = CC(C)(N)C(=O)O

Experiments:
Assay type in all cases: functional
[1] = test system: Mycolicibacterium smegmatis; experiment: Antimycobacterial activity against Mycobacterium smegmatis under aerobic condition
[2] = test system: Mycolicibacterium smegmatis; experiment: Antimycobacterial activity against Mycobacterium smegmatis under dormancy-inducing hypoxic condition
[3] = test system: Mycobacterium tuberculosis; experiment: Antimycobacterial activity against Mycobacterium tuberculosis H37Rv under aerobic condition
[4] = test system: Mycobacterium tuberculosis; experiment: Antimycobacterial activity against Mycobacterium tuberculosis H37Rv under dormancy-inducing hypoxic condition

SMILES	MIC [1]	MIC [2]	MIC [3]	MIC [4]
NNC(=O)c1ccncc1 [ISONIAZID]	2.5 µg/mL (≈ 18.2 µM)	25 µg/mL (≈ 182 µM)	0.05 µg/mL (≈ 0.365 µM)	> 100 µg/mL
CCCCCCCC[C@@H](C)C(=O)N1CCC[C@H]1C(=O)N[C@@H](C[C@H](C)C/C=C/C(=O)CC)C(=O)NC(C)(C)C(=O)NC(C)(C)C(=O)N[C@H](C(=O)N[C@H](C(=O)NC(C)(C)C(=O)NC(C)(C)C(=O)N[C@@H](C)CN(C)CCO)C(C)C)[C@@H](C)CC [TRICHODERIN A1] ({Decanoyl(2R-Me)}-P[X1][Aib][Aib]IV[Aib][Aib]-{Alaψ(CH2NMeCH2CH2OH)})	1.56 µg/mL (≈ 1.36 µM)	1.56 µg/mL (≈ 1.36 µM)	2 µg/mL (≈ 1.75 µM)	2 µg/mL (≈ 1.75 µM)
CCCCCCCC[C@@H](C)C(=O)N1CCC[C@H]1C(=O)N[C@@H](C[C@H](C)C[C@H](O)CC(=O)CC)C(=O)NC(C)(C)C(=O)NC(C)(C)C(=O)N[C@H](C(=O)N[C@H](C(=O)NC(C)(C)C(=O)NC(C)(C)C(=O)N[C@@H](C)CN(C)CCO)C(C)C)[C@@H](C)CC [TRICHODERIN A] ({Decanoyl(2R-Me)}-P[X2][Aib][Aib]IV[Aib][Aib]-{Alaψ(CH2NMeCH2CH2OH)})	0.1 µg/mL (≈ 0.0859 µM)	0.1 µg/mL (≈ 0.0859 µM)	0.12 µg/mL (≈ 0.103 µM)	0.12 µg/mL (≈ 0.103 µM)
CCCCCCCC[C@@H](C)C(=O)N1CCC[C@H]1C(=O)N[C@@H](C[C@H](C)C[C@H](O)CC(=O)CC)C(=O)NC(C)(C)C(=O)NC(C)(C)C(=O)N[C@H](C(=O)N[C@H](C(=O)NC(C)(C)C(=O)NC(C)(C)C(=O)N[C@@H](C)CN(C)CCO)C(C)C)C(C)C [TRICHODERIN B] ({Decanoyl(2R-Me)}-P[X2][Aib][Aib]VV[Aib][Aib]-{Alaψ(CH2NMeCH2CH2OH)})	0.63 µg/mL (≈ 0.548 µM)	0.63 µg/mL (≈ 0.548 µM)	0.13 µg/mL (≈ 0.113 µM)	0.13 µg/mL (≈ 0.113 µM)
